These are literature values, as cited in US20040092565A1, “Composition and method of sustaining chemotherapeutic effect while reducing dose of chemotherapeutic agent using cox-2 inhibitor and statin” (priority 2001, published 2004).

Read-outs that look alike come from different tables or passages of the source.

In one series the test system is prostate cancer specimen. Conditions: mice, in vivo.
The subject of series [1] is cisplatin-induced side effects. Particulars: 5 g of glutathione immediately before cisplatin.
Series [2] deals with Prostate Cancer Cell Line LNCaP. Conditions: literature reports on LNCaP and human prostate carcinoma cells.
For series [3] the following is noted: package insert.

On to `CS(=O)(=O)Nc1ccc([N+](=O)[O-])cc1OC1CCCCC1` [NS398], for which the “angiogenesis of prostate cancer specimen” value with prostate cancer specimen is reported as “inhibit angiogenesis”.
For `N[C@@H](CCC(=O)N[C@@H](CS)C(=O)NCC(=O)O)C(=O)O` [glutathione, gamma-Glu-Cys-Gly], in series [1] (compared with control group), the “intensity of hematologic toxicity” value is “significantly less pronounced”. The overall survival in series [1] (vs. 10.5 months in the other group, no statistical difference) is given as 13.5 months.
With `CC[C@H](C)C(=O)O[C@H]1C[C@@H](C)C=C2C=C[C@H](C)[C@H](CC[C@@H]3C[C@@H](O)CC(=O)O3)[C@H]21` [lovastatin], the “therapeutic value in prostate cancer” value in series [2] is given as “had therapeutic value in treating prostate cancer”.
Regarding `CS(=O)(=O)c1ccc(C2=C(c3ccccc3)C(=O)OC2)cc1` [rofecoxib], the results for the “time to maximum plasma concentration” value in series [3] (for some persons) and in series [3] (on average) were 2 to 9 h and 2 to 3 h, respectively.
